Reference: ChEMBL document CHEMBL1201862, “PubChem BioAssay data set” (2004)
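Growth conditions: 96-well plates. Treatment: test compound, 48 hours, 5 concentrations. Analysis: linear interpolation between bracketing concentrations; unreached endpoints set to highest concentration. GI50 is the concentration that inhibits growth by half.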 The source made the active and inactive calls. Rule as the data show it: active = GI50 up to about 1.1 µM and inactive = higher.

How the values were obtained:
Assay in all cases: DTP human tumour cell line panel, 48 h
XF498 = tested on: XF498
DMS-273 = tested on: DMS-273
LXFL 529 = tested on: LXFL 529
RXF 631 = tested on: RXF 631
M19-MEL = tested on: M19-MEL
SNB-78 = tested on: SNB-78
DMS-114 = tested on: DMS-114
HOP-18 = tested on: HOP-18

Measured: GI50

CCc1cccc(C)c1NS(=O)(=O)c1ccccc1
inactive: XF498 > 100 µM | DMS-273 > 100 µM | LXFL 529 > 100 µM | RXF 631 > 100 µM | M19-MEL > 100 µM | SNB-78 > 100 µM | DMS-114 > 100 µM

OC(c1ccccc1)(c1ccccc1)c1ccncc1
inactive: XF498 > 100 µM | DMS-273 > 100 µM | LXFL 529 > 100 µM | HOP-18 > 100 µM | M19-MEL > 100 µM | SNB-78 > 100 µM | DMS-114 > 100 µM

C/C(=N\NC(C)(C)C)c1sc(-c2nc(C)c(/C(C)=N/NC(C)(C)C)s2)nc1C
inactive: DMS-273 > 100 µM | LXFL 529 > 100 µM | RXF 631 > 100 µM | HOP-18 > 100 µM | M19-MEL > 100 µM | SNB-78 > 100 µM | DMS-114 > 100 µM

N#Cc1ccc(/C=N\N2C(=O)c3ccccc3C2=O)cc1
inactive: XF498 > 100 µM | DMS-273 > 100 µM | LXFL 529 > 100 µM | HOP-18 > 100 µM | M19-MEL > 100 µM | SNB-78 > 100 µM | DMS-114 > 100 µM

Cc1cc(C)c(/C=N/NS(=O)(=O)c2ccccc2)c(C)c1
inactive: DMS-273 > 100 µM | LXFL 529 62.2 µM | RXF 631 > 100 µM | HOP-18 59 µM | M19-MEL > 100 µM | SNB-78 > 100 µM | DMS-114 60.4 µM

C1=CC=C2NCCCCCC/N=C3\C=CC=CC=C3NCCc3cccc(c3)CC/N=C/2C=C1
inactive: DMS-273 10.2 µM | LXFL 529 10.7 µM | RXF 631 11.2 µM | M19-MEL 16.7 µM | SNB-78 > 100 µM | DMS-114 13.3 µM

CC(=O)NC(CCCNC(=O)NCCCl)C(=O)NCc1ccccc1 (stereo not given)
inactive: DMS-273 > 100 µM | LXFL 529 > 100 µM | RXF 631 > 100 µM | HOP-18 > 100 µM | M19-MEL > 100 µM | DMS-114 > 100 µM

N#Cc1nc(Nc2cccc3ccccc23)sc1N
inactive: XF498 20.3 µM | DMS-273 36.8 µM | LXFL 529 29.9 µM | M19-MEL 28.5 µM | SNB-78 13 µM

COc1ccc(CC2c3c(cc(OC)c(OC)c3OC)CCN2C)cc1OC (stereo not given)
inactive: XF498 > 100 µM | LXFL 529 > 100 µM | HOP-18 51.2 µM | SNB-78 60 µM

COc1cc2ccnc3c(=C(SC)SC)c(=O)c(c1OC)c23
inactive: DMS-273 13.8 µM | LXFL 529 4.65 µM | RXF 631 14.8 µM | HOP-18 13.3 µM | M19-MEL 16 µM | DMS-114 17.3 µM

C/C(=N/N)c1sc(-c2nc(C)c(/C(C)=N\N)s2)nc1C
inactive: XF498 38.2 µM | DMS-273 > 41.3 µM | LXFL 529 50.8 µM | HOP-18 > 67.1 µM | M19-MEL > 100 µM | SNB-78 > 100 µM | DMS-114 > 46.7 µM

COc1ccc2c(c1)C(=O)c1ccc(OC)cc1C2=S
inactive: XF498 85.3 µM | DMS-273 > 100 µM | HOP-18 > 100 µM | M19-MEL > 100 µM | SNB-78 30.7 µM | DMS-114 > 100 µM
